Measured values: ChEMBL document CHEMBL2163227, “Synthesis and biological characterization of a series of novel diaryl amide M₁ antagonists” (Bioorg Med Chem Lett, 2012)
The source made the active and inactive calls. The rule behind the calls is not given here.

Legend:
[1] = target: T1, Muscarinic acetylcholine receptor M1 (Homo sapiens) (UniProt P11229); experiment: Antagonist activity at human muscarinic M1 receptor at 30 uM; format: functional
T1 sequence (whole entry): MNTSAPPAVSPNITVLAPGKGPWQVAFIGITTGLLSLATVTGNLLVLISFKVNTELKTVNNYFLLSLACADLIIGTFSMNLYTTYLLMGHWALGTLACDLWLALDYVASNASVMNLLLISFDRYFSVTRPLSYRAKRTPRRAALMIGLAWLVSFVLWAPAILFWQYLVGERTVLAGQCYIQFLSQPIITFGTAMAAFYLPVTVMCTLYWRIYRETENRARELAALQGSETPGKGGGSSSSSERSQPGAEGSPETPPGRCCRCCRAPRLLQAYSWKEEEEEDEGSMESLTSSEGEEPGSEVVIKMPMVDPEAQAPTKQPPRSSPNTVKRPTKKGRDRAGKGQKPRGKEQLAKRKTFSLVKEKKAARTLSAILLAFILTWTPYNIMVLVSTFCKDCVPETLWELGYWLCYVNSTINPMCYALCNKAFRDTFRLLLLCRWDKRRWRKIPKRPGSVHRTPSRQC

[2] = target: T2, Muscarinic acetylcholine receptor M1 (Homo sapiens, UniProt P11229); experiment: (§1) Antagonist activity at human muscarinic M1 receptor; format: functional
T2 sequence (P11229 whole entry): T1 sequence (whole entry)

[3] = target: T1, Muscarinic acetylcholine receptor M1 (Homo sapiens); experiment: as §1; format: functional; design: concentration or dose not given beside the values
[4] = target: T1, Muscarinic acetylcholine receptor M1 (Homo sapiens); experiment: Antagonist activity at human muscarinic M1 receptor expressed in CHO cells assessed as inhibition of Ach-mediated response by calcium mobilization assay; format: functional, cell-based
[5] = target: T3, Muscarinic acetylcholine receptor M4 (Homo sapiens, UniProt P08173); experiment: Antagonist activity at human muscarinic M4 receptor by calcium mobilization assay; format: functional
T3 sequence (P08173 whole entry): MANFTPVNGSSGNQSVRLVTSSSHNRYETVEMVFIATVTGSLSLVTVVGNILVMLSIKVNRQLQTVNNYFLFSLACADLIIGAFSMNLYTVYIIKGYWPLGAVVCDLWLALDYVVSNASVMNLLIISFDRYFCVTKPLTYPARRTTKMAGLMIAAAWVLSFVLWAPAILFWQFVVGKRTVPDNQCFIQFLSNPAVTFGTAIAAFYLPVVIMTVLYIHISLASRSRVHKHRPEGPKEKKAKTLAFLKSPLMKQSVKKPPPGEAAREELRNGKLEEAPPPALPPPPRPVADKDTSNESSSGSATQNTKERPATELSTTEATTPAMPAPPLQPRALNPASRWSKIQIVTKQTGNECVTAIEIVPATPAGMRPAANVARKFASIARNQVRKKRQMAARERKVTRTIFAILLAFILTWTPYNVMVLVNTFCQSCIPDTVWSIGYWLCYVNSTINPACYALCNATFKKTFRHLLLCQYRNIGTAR

[6] = target: T4, Muscarinic acetylcholine receptor M2 (Homo sapiens, UniProt P08172); experiment: Antagonist activity at human muscarinic M2 receptor by calcium mobilization assay; format: functional
T4 sequence (P08172 whole entry): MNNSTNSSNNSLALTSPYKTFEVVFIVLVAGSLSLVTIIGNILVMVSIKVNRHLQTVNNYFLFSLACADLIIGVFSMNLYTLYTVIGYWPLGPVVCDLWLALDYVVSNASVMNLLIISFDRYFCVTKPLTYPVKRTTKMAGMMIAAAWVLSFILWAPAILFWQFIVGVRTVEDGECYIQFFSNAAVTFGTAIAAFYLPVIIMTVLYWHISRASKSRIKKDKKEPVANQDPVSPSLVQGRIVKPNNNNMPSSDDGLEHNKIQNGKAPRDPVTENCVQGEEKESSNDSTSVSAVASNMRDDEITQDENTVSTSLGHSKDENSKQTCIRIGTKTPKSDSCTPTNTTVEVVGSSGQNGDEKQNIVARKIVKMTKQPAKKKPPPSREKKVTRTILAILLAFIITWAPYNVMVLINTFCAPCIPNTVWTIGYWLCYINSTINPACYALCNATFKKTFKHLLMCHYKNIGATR

[7] = target: Muscarinic acetylcholine receptor M3 (Homo sapiens, UniProt P20309); experiment: Antagonist activity at human muscarinic M3 receptor by calcium mobilization assay; format: functional
[8] = target: T5, Muscarinic acetylcholine receptor M5 (Homo sapiens, UniProt P08912); experiment: Antagonist activity at human muscarinic M5 receptor by calcium mobilization assay; format: functional
T5 sequence (P08912 whole entry): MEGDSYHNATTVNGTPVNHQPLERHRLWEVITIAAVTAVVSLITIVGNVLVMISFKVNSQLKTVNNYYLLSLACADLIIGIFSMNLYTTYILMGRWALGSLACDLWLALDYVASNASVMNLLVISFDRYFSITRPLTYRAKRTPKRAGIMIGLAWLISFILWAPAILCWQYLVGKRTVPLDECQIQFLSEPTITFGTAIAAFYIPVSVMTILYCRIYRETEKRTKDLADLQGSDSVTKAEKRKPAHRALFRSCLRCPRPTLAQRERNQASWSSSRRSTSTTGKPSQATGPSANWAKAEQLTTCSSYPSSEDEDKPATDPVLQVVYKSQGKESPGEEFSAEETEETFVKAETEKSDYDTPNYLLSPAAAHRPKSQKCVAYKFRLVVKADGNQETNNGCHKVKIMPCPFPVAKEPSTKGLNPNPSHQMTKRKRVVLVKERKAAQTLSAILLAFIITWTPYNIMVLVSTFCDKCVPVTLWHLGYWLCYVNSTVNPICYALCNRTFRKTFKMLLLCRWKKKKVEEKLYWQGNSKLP

Sequence of Muscarinic acetylcholine receptor M3 (P20309 whole entry): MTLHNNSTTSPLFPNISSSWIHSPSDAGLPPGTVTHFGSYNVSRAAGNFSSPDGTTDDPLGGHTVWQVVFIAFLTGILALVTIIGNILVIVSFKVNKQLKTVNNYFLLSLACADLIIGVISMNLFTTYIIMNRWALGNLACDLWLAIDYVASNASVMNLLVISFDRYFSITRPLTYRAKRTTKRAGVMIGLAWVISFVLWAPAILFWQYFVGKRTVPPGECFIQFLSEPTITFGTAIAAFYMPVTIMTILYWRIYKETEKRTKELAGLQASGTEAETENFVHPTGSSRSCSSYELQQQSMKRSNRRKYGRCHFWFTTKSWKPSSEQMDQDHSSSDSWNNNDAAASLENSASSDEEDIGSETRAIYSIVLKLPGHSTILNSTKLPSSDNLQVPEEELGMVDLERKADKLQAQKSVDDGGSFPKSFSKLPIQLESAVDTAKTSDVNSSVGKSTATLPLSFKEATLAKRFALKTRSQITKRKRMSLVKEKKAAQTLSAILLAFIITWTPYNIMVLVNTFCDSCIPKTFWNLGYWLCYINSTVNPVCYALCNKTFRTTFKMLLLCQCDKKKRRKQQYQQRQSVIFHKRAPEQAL

Row | Activity [1] | IC50 ([2]; read-out: IC50) [nM] | Activity [3] | Structure (SMILES) | further results
1 | inactive | > 10000 | 10.9% | COCCN1CCN(C(=O)C(Cc2ccccc2)c2ccccc2)CC1 (configuration not stated) | –
2 | – | – | inactive | O=C(C(Cc1ccccc1)c1ccccc1)N1CCN(CC(F)(F)F)CC1 (configuration not stated) | –
3 | inactive | > 10000 | 35.9% | CC(C)CN1CCN(C(=O)C(Cc2ccccc2)c2ccccc2)CC1 (configuration not stated) | –
4 | – | 260 | 1.4% | CCN1CCN(C(=O)C(Cc2ccccc2)c2ccccc2)CC1C (configuration not stated) | –
5 | – | 38 | 2.2% | CCN1CCCN(C(=O)C(Cc2ccccc2)c2ccccc2)CC1 (configuration not stated) | –
6 | inactive | > 10000 | 26.1% | O=C(C(Cc1ccccc1)c1ccccc1)N1CCNCC1 (configuration not stated) | –
7 | – | 370 | 6.43% | O=C(C(Cc1ccccc1)c1ccccc1)N1CC[C@H]2CCCN2CC1 (some centres not stated) | IC50 ([2]; read-out: pIC50 (converted)): 2140 nM
8 | – | 100 | 1.4% | CC1CN(C(=O)C(Cc2ccccc2)c2ccccc2)CCN1C (configuration not stated) | –
9 | inactive | > 10000 | 29.6% | CC1CCN(C)CCN1C(=O)C(Cc1ccccc1)c1ccccc1 (configuration not stated) | –
10 | – | 33 | – | CN1CCN(C(=O)[C@H](Cc2ccccc2)c2ccccc2)CC1 | inhibition [4]: Dose-dependent effect
11 | – | 440 | 1.3% | CC(C)N1CCN(C(=O)C(Cc2ccccc2)c2ccccc2)CC1 (configuration not stated) | –
12 | – | 44 | 2.4% | CN1CCN(C(=O)C(Cc2ccccc2)c2ccccc2)CC1 (racemic) | –
13 | – | – | inactive | CN1CCN(C(=O)[C@@H](Cc2ccccc2)c2ccccc2)CC1 | –
14 | – | 100 | 2% | CN1CCCN(C(=O)C(Cc2ccccc2)c2ccccc2)CC1 (configuration not stated) | –
15 | inactive | > 10000 | 24.3% | O=C(C(Cc1ccccc1)c1ccccc1)N1CCCNCC1 (configuration not stated) | –
16 | inactive | > 10000 | 8.7% | C[N+]1(C)CCN(C(=O)C(Cc2ccccc2)c2ccccc2)CC1 (configuration not stated) | –
17 | – | 100 | 2.4% | CC(C)N1CCCN(C(=O)C(Cc2ccccc2)c2ccccc2)CC1 (configuration not stated) | –

The next lines start with the molecule.

Row | Structure (SMILES) | Activity [1] | IC50 ([2]; read-out: IC50) [nM] | Activity [3] | further results
18 | CN(C)CCNC(=O)C(Cc1ccccc1)c1ccccc1 (configuration not stated) | inactive | > 10000 | 3.5% | –
19 | CN1CCC(N2CCN(C(=O)C(Cc3ccccc3)c3ccccc3)CC2)CC1 (configuration not stated) | – | – | inactive | –
20 | CCN1CCN(C(=O)C(Cc2ccccc2)c2ccccc2)CC1(C)C (configuration not stated) | – | 90 | 1.5% | –
21 | CN1CCN(C(=O)[C@@](F)(Cc2ccccc2)c2ccccc2)CC1 (mixture of isomers) | – | 18 | 2.7% | inhibition [4]: Dose-dependent effect; IC50 [5]: 140 nM; IC50 [6]: > 1500 nM; IC50 [7]: > 1500 nM; IC50 [8]: 82 nM
22 | CN(C)CCN(C)C(=O)C(Cc1ccccc1)c1ccccc1 (configuration not stated) | inactive | > 10000 | 37.1% | –
23 | O=C(C(Cc1ccccc1)c1ccccc1)N1CCN2CCCCC2C1 (configuration not stated) | – | 2000 | 0.5% | –
24 | CCN1CCN(C(=O)C(Cc2ccccc2)c2ccccc2)CC1 (configuration not stated) | – | 570 | 1.8% | –
25 | CN1CCN(C(=O)[C@H](Oc2ccccc2)c2ccccc2)CC1 (mixture of isomers) | – | 240 | 3.4% | –
26 | O=C(C(Cc1ccccc1)c1ccccc1)N1CCC(N2CCCC2)CC1 (configuration not stated) | – | 3800 | 3.5% | –
27 | CN1CCN(C(=O)C(Cc2ccccc2)c2ccccc2)CC1c1ccccc1 (configuration not stated) | inactive | > 10000 | 62.8% | –
28 | CN1C[C@@H]2CN(C(=O)C(Cc3ccccc3)c3ccccc3)C[C@@H]2C1 (some centres not stated) | inactive | > 10000 | 6.7% | –
29 | CN1CCN(C(=O)/C(=C\c2ccccc2)c2ccccc2)CC1 | – | 180 | – | –
30 | CN1CCN(C(=O)C(Cc2ccccc2)c2ccccc2)C(c2ccccc2)C1 (configuration not stated) | inactive | > 10000 | 17.2% | –
31 | O=C(C(Cc1ccccc1)c1ccccc1)N1CCN(c2ccncc2)CC1 (configuration not stated) | inactive | > 10000 | 28.5% | –
32 | CN(C)CCOC(=O)C(Cc1ccccc1)c1ccccc1 (configuration not stated) | – | 140 | 1.5% | –
33 | CN1CCN(C(=O)[C@@H](Oc2ccccc2)c2ccccc2)CC1 (racemic) | – | > 10000 | 107% | –
34 | CN1CCN(C(=O)[C@](F)(Cc2ccccc2)c2ccccc2)CC1 (mixture of isomers) | – | 2400 | 2.1% | –
35 | CN1CCN(C(=O)C2(c3ccccc3)CC2c2ccccc2)CC1 (configuration not stated) | – | 2500 | – | –
36 | CN1CCN(C(=O)C(F)(Cc2ccccc2)c2ccccc2)CC1 (configuration not stated) | – | 29 | 3.1% | EC50 [2]: 28.2 nM
37 | CN1CCN(C(=O)C(Cc2ccncc2)c2ccccc2)CC1 (configuration not stated) | – | 880 | 3.5% | –
38 | CN1CCN(C(=O)C(C)(Cc2ccccc2)c2ccccc2)CC1 (configuration not stated) | – | > 10000 | 39.1% | –
39 | CN1CCN(C(=O)C(Cc2cccnc2)c2ccccc2)CC1 (configuration not stated) | – | 500 | 1.1% | –
